The source of these data is the C3SDB collision cross section collection.

For the series the following is noted: instrument: DT, stepped-field.

Several values for one entry are separate records, joined by “and”; a condition that tells them apart may be missing. Equal values may be shown once.

Take `CC12CCC(CC1=O)C2(C)C` (configuration not stated) [Camphor]: the “collision cross section (N2)” value ([M+H]+) was 142.8 Å².

Regarding `NCCC(=O)N[C@@H](Cc1cnc[nH]1)C(=O)O` [Carnosine], the “collision cross section (N2)” value ([M+H]+) was found to be 152.18 Å².

For `OC[C@H]1O[C@@H](O[C@H]2[C@H](O)[C@@H](O)[C@H](O[C@H]3[C@H](O)[C@@H](O)[C@H](O[C@H]4[C@H](O)[C@@H](O)C(O)O[C@@H]4CO)O[C@@H]3CO)O[C@@H]2CO)[C@H](O)[C@@H](O)[C@@H]1O` (some centres not stated) [Cellotetraose], for the setting “[M+Na]+”, the “collision cross section (N2)” value worked out at 225 Å².

In the case of `O=C(O)CC(O)(CC(=O)O)C(=O)O` [Citric Acid], the “collision cross section (N2)” value is, setting by setting: ([M+H]+) 148.9 Å²; ([M+Na]+) 146.11 Å².

`Oc1cc(O)c2cc(O)c(-c3ccc(O)c(O)c3)[o+]c2c1` [Cyanidin]: the “collision cross section (N2)” value ([M]+) is listed as 168.33 Å².

`OC[C@H]1O[C@H](O[C@H]2[C@H](O)[C@H](O)COC2(O)CO)[C@H](O)[C@@H](O)[C@@H]1O` (stereo partly drawn) [D-(+)-Turanose]: the “collision cross section (N2)” value ([M+Na]+) is listed as 177 Å².

For `OC[C@H]1OC(O)[C@H](O)[C@@H](O)[C@H]1O` (stereo partly drawn) [D-Galactose], the “collision cross section (N2)” value ([M+Na]+) amounted to 142.39 Å².

For the molecule `OC[C@H]1OC(O)[C@H](O)[C@@H](O)[C@@H]1O` (stereo partly drawn) [D-Glucose], under “[M+Na]+”, the “collision cross section (N2)” value was 147.72 Å².

Consider `O=C(O)[C@H]1OC(O)[C@H](O)[C@@H](O)[C@@H]1O` (stereo partly drawn) [D-Glucuronate], for which the “collision cross section (N2)” value ([M+Na]+) is recorded as 153.13 Å².

Consider `O=C[C@H](O)COP(=O)(O)O` [D-Glyceraldehyde 3-Phosphate], for which the “collision cross section (N2)” value ([M+H]+) amounted to 135.86 Å².

`O=P(O)(O)OC[C@H]1OC(O)[C@H](O)[C@@H]1O` (stereo partly drawn) [D-Ribose 5-Phosphate]: the “collision cross section (N2)” value ([M+Na]+) came out at 155.8 Å².

`O=C(CO)[C@H](O)[C@H](O)COP(=O)(O)O` [D-Ribulose 5-Phosphate]: the “collision cross section (N2)” value ([M+Na]+) came to 153.25 Å².

Regarding `O=C[C@H](O)[C@@H](O)[C@H](O)COP(=O)(O)O` [D-Xylose 5-phosphate], the “collision cross section (N2)” value ([M+Na]+) is listed as 151.4 Å².

With `O=C(CO)[C@@H](O)[C@H](O)CO` [D-Xylulose], the “collision cross section (N2)” value ([M+Na]+) is 141.76 Å².

With `Nc1nc(=O)c2c([nH]1)NCC(CNc1ccc(C(=O)N[C@@H](CCC(=O)O)C(=O)O)cc1)=N2` [Dihydrofolate], the “collision cross section (N2)” value ([M+H]+) is 193.63 Å².

As to `N#Cc1c[nH]cc1-c1cccc2c1OC(F)(F)O2` [Fludioxonil], where the note is “[M+Na]+”, the “collision cross section (N2)” value is given as 165.7 Å².

For the molecule `CN(C)C(=O)Nc1cccc(C(F)(F)F)c1` [Fluometuron], the “collision cross section (N2)” value ([M+H]+) came out at 152.2 Å² and the “collision cross section (N2)” value ([M+Na]+) was found to be 161.2 Å².

As to `CP(=O)(O)CCC(N)C(=O)O` (configuration not stated) [Glufosinate], the “collision cross section (N2)” value amounted to 140.15 Å² ([M+H]+) and 142.7 Å² ([M+Na]+).

On to `Oc1ccc(O)cc1` [Hydroquinone], for which the “collision cross section (N2)” value ([M+H]+) was determined as 128.79 Å².

With `O=C(O)[C@@H]1CCCCN1` [L-Pipecolic Acid], the “collision cross section (N2)” value ([M+H]+) worked out at 130.93 Å².

Consider `CCCCCCCCCCCCCCCCCCC(=O)OC[C@@H](O)COP(=O)([O-])OCC[N+](C)(C)C` [LPC(19:0)], for which the “collision cross section (N2)” value ([M+H]+) was determined as 241.9 Å².

With `CCCCCCCCCCCC(=O)O[C@H](CC(=O)[O-])C[N+](C)(C)C` [Lauroyl-L-carnitine], the “collision cross section (N2)” value ([M+Na]+) stood at 217.5 Å².

On to `CCCCC/C=C\C[C@@H](O)/C=C/C=C/C=C\[C@@H](O)CCCC(=O)O` [Leukotriene B4], for which, for the setting “[M+Na]+”, the “collision cross section (N2)” value was found to be 196.05 Å².

Take `CCCCC/C=C\C\C=C/C=C/C=C/[C@@H](SC[C@H](NC(=O)CC[C@H](N)C(=O)O)C(=O)NCC(=O)O)[C@@H](O)CCCC(=O)O` [Leukotriene C4]: the “collision cross section (N2)” value is, setting by setting: ([M+H]+) 257.4 Å²; ([M+Na]+) 260.57 Å².

For `CCCCC[C@H](O)/C=C/C=C\C=C\C=C\[C@@H](O)[C@@H](O)CCCC(=O)O` [Lipoxin A4], the “collision cross section (N2)” value ([M+Na]+) was 197.89 Å².

Consider `OC[C@H]1O[C@@H](O[C@H]2[C@H](O)[C@H](O)[C@H](O[C@H]3[C@H](O)[C@H](O)[C@H](O[C@H]4[C@H](O)[C@H](O)C(O)O[C@@H]4CO)O[C@@H]3CO)O[C@@H]2CO)[C@@H](O)[C@@H](O)[C@@H]1O` (some centres not stated) [Mannotetraose], for which the “collision cross section (N2)” value ([M+Na]+) amounted to 234.12 Å².

Turning to `CCCCCCCCCCCCCCCCCCCCCCCC(=O)OC` [Methyl Tetracosanoate], under “[M+H]+”, the “collision cross section (N2)” value came to 187.54 Å².

On to `CO[C@@H]1O[C@H](CO)[C@H](O)[C@H](O)[C@H]1O` [Methyl beta-D-galactoside], for which, under “[M+Na]+”, the “collision cross section (N2)” value stood at 149.97 Å².

On to `CC(=O)N[C@@H]1C(O)O[C@H](CO)[C@@H](O)[C@@H]1O` (stereo partly drawn) [N-Acetyl-D-mannosamine], for which, under “[M+Na]+”, the “collision cross section (N2)” value is on record as 154.76 Å².

For the molecule `CC(=O)N[C@@H](C)C(=O)O` [N-Acetyl-L-alanine], where the note is “[M+Na]+”, the “collision cross section (N2)” value stood at 138.07 Å².

`O=C1CC(c2ccc(O)cc2)Oc2cc(O)cc(O)c21` (configuration not stated) [Naringenin]: under “[M+H]+”, the “collision cross section (N2)” value was 167.96 Å².

On to `NC(=O)c1ccc[n+]([C@@H]2O[C@H](COP(=O)(O)OP(=O)(O)OC[C@H]3O[C@@H](n4cnc5c(=O)nc[nH]c54)[C@H](O)[C@@H]3O)[C@@H](O)[C@H]2O)c1` [Nicotinamide Hypoxanthine Dinucleotide], for which the “collision cross section (N2)” value reads like this: ([M+H]+) 222.79 Å²; ([M+Na]+) 232.01 Å².

As for `O=C(O)c1cccnc1` [Nicotinic Acid], the “collision cross section (N2)” value ([M+H]+) is 128.35 Å².

Take `CCCCCCCC/C=C\CCCCCCCC(=O)O` [Oleic Acid]: the “collision cross section (N2)” value ([M+Na]+) was 181.37 Å².

`CC[C@H](NC(=O)CC[C@H](N)C(=O)O)C(=O)NCC(=O)O` [Ophthalmic Acid]: the “collision cross section (N2)” value by setting is: ([M+H]+) 167.23 Å²; ([M+Na]+) 165.7 Å².

As for `CCCCCCCCCCC(=O)OC[C@H](COP(=O)([O-])OCC[N+](C)(C)C)OC(=O)CCCCCCCCCC` [PC(11:0/11:0)], the “collision cross section (N2)” value by setting is: ([M+H]+) 257.07 Å²; ([M+Na]+) 260.59 Å².

With `CCCCCCC/C=C\CCCCCCCC(=O)OC[C@H](COP(=O)(O)OCCN)OC(=O)CCCCCCC/C=C\CCCCCCCCC` [PE(18:1/18:1)], the “collision cross section (N2)” value runs as follows: ([M+H]+) 280.6 Å² and 284.02 Å²; ([M+Na]+) 287.57 Å² and 288.54 Å².

With `OC[C@H]1O[C@H](OC[C@H]2OC(O)(CO)[C@@H](O)[C@@H]2O)[C@H](O)[C@@H](O)[C@@H]1O` (some centres not stated) [Palatinose], for the setting “[M+Na]+”, the “collision cross section (N2)” value stood at 177.31 Å².

With `O=C1C=Cc2cccc3cccc1c23` [Perinaphthenon], the “collision cross section (N2)” value ([M+H]+) is 134.59 Å².

`NC(=O)CC[C@H](NC(=O)Cc1ccccc1)C(=O)O` [Phenylacetyl L-Glutamine]: the “collision cross section (N2)” value ([M+H]+) turned out to be 160.93 Å² and the “collision cross section (N2)” value ([M+Na]+) is listed as 171.25 Å².

As for `C[N+](C)(C)CCOP(=O)(O)O` [Phosphocholine], the “collision cross section (N2)” value ([M+H]+) turned out to be 138.54 Å².

Consider `COc1cc(O)c2c(c1)O[C@H](c1ccccc1)CC2=O` [Pinostrobin], for which the “collision cross section (N2)” value ([M+H]+) stood at 164.24 Å².

`CCCCC[C@H](O)/C=C/[C@@H]1[C@@H](C/C=C\CCCC(=O)O)[C@@H](O)C[C@H]1O` [Prostaglandin F2 alpha]: the “collision cross section (N2)” value ([M+Na]+) is recorded as 207.33 Å².
